Where a name gives a salt, the structure may show the parent alone.
How the values were obtained:
Type in all cases: biochemical
MAO-B = target: T1, MAO-B (Homo sapiens, UniProt P27338); assay: Measurement of MAO-B inhibitory activity (MAO-Glo Assay)
T1 construct: purchased Sigma-Aldrich Co. LLC
T1 sequence (P27338 1-520): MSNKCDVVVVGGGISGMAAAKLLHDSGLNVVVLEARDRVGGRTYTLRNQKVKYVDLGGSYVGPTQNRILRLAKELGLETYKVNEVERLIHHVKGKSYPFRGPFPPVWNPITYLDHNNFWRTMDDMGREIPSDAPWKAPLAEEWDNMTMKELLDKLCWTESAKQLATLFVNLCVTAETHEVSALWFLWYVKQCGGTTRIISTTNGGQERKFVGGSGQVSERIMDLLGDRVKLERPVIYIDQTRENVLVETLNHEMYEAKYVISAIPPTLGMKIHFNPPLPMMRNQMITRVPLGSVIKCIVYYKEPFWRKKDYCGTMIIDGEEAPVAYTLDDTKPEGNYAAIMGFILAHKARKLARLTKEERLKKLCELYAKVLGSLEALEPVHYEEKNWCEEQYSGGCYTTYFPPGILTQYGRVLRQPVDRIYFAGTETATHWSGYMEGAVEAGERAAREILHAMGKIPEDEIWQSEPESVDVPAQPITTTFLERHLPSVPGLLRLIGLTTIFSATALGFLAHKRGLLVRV
Experimental: (2) Measurement of MAO-B Inhibitory Activity
The MAO-B inhibitory activity evaluation described below followed the protocol of MAO-Glo (registered trademark) Assay of Promega KK.
(§1) A test compound dissolved in 4% DMSO was added by 12.5 μL to 25 μL reaction solution (100 mM HEPES (pH 7.5), 5% glycerol, 10% DMSO) containing 400 ng of MAO-B enzyme (Sigma-Aldrich Co. LLC.), and the mixture was reacted at room temperature for 10 min. MAO substrate (Promega KK) (16 μM) was added by 12.5 μL to start the reaction. After reaction at room temperature for 60 min, Luciferine detection reagent (Promega KK) (50 μL) was added to terminate the reaction. After reaction at room temperature for 20 min with stirring, the luminescence was measured by Envision (PerkinElmer). The MAO-B inhibitory rate (%) of the test compound was calculated by the following formula. inhibitory rate (%)=(1−(test compound count−blank)÷(control−blank)×100
The count of the MAO-B enzyme reaction mixture under compound non-addition conditions is indicated as control, and the count under compound non-addition and MAO-B enzyme non-addition conditions is indicated as blank.

human LSD1(171-852) = target: T2, human LSD1(171-852) (Homo sapiens, UniProt O60341); assay: Measurement of LSD1 inhibitory activity (time-resolved fluorescence, biotin-histone H3 mono methylated K4 peptide); details: read-out: LSD1 IC50 value
T2 construct: to give hLSD1(171-852) purified product; made in house; host or cells: Escherichia coli C43(DE3) pLysS
Experimental: When the turbidity reached 600 Klett units, the culture temperature was changed to 16° C., IPTG having a final concentration of 0.5 mM was added to induce expression, and the cells were cultured further for 21 hr. The culture medium was centrifuged at 9,000 g for 10 min, and Escherichia coli pellets were recovered.
Escherichia coli pellets in 9 L of the culture medium were suspended in 1340 mL of an extraction buffer (PBS, 5% (V/V) Glycerol), and 6700 units of Benzonase (Merck) were added. Using Branson ultrasonic disintegrator, the suspension was disrupted by ultrasonication for 3 min, and centrifuged at 33,000 g for 20 min, and the supernatant was recovered.
(5) Measurement of LSD1 Inhibitory Activity
After reaction at room temperature for 20 min, 1 mM 2-PCPA solution (5 μL) was added to terminate the reaction. A detection solution (800 mM potassium fluoride, 0.1% BSA) containing europium-labeled antihistone H3 antibody (Wako Pure Chemical Industries, Ltd.) and Streptavidin-XL665 (Cisbio) was further added by 5 μL, and the mixture was left standing for 60 min. A time-resolved fluorescence (excitation 320 nm, emission 615 nm, 665 nm) was measured by Envision (PerkinElmer). The LSD1 inhibitory rate (%) of the test compound was calculated by the following formula. inhibitory rate (%)=(1−(test compound count−blank)÷(control−blank)×100
The count of the LSD1 enzyme reaction mixture under compound non-addition conditions is indicated as control, and the count under compound non-addition and LSD1 enzyme non-addition conditions is indicated as blank.

MAO-A = target: T3, MAO-A (Homo sapiens, UniProt P21397); assay: Measurement of MAO-A inhibitory activity (MAO-Glo Assay)
T3 construct: purchased Sigma-Aldrich Co. LLC
T3 sequence (P21397 1-527): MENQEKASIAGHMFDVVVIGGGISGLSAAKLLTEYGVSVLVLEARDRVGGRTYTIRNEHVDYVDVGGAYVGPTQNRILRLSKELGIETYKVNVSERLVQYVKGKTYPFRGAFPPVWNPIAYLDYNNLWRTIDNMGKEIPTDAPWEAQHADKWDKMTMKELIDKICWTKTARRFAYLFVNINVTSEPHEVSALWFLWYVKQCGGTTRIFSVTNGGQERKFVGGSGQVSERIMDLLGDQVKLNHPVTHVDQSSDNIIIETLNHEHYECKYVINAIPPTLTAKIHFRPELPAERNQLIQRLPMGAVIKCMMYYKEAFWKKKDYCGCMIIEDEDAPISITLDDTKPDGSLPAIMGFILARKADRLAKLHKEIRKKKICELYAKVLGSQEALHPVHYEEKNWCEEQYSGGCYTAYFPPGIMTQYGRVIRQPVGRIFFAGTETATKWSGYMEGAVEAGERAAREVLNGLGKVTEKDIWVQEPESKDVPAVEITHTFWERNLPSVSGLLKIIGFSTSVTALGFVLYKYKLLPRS
Experimental: (1) Measurement of MAO-A Inhibitory Activity
The MAO-A inhibitory activity evaluation described below followed the protocol of MAO-Glo (registered trademark) Assay of Promega KK.
as §1, with “glycerol)” for “glycerol, 10% DMSO)”, “MAO-A” for “MAO-B”, “(160” for “(16”
The count of the MAO-A enzyme reaction mixture under compound non-addition conditions is indicated as control, and the count under compound non-addition and MAO-A enzyme non-addition conditions is indicated as blank.

Compound | IC50 (MAO-B) [µM] | IC50 (human LSD1(171-852)) [µM] | IC50 (MAO-A) [µM]
O=C(Nc1ccc([C@@H]2C[C@H]2NCc2ccccc2F)cc1)c1ccccc1 (relative stereo) [Example 15, N-(4-{trans-2-[(2-fluoro-benzyl)amino]-cyclopropyl}-phenyl)benzamide] | > 10 | < 0.1 | 6
O=C(Nc1ccc([C@@H]2C[C@H]2NCc2ccc(-c3ccccc3)cc2)cc1)c1ccccc1 (relative stereo) [Example 16, N-(4-{trans-2-[(biphenyl-4-ylmethyl)amino]-cyclopropyl}-phenyl)benzamide] | > 10 | < 0.1 | 4.7
CC(C)(C)CN[C@@H]1C[C@H]1c1ccc(NC(=O)c2ccccc2)cc1 (relative stereo) [Example 17, N-(4-{trans-2-[(2,2-dimethyl-propyl)amino]-cyclopropyl)-phenyl)benzamide] | > 10 | < 0.1 | > 10
O=C(Nc1ccc([C@@H]2C[C@H]2NCc2ccc3ccccc3c2)cc1)c1ccccc1 (relative stereo) [Example 18, N-(4-{trans-2-[(naphthalen-2-ylmethyl)amino]-cyclopropyl}-phenyl)benzamide] | > 10 | < 0.1 | 2.6
CC(N[C@@H]1C[C@H]1c1ccc(NC(=O)c2ccccc2)cc1)c1ccccc1 (relative stereo) [Example 19, N-(4-{trans-2-[(1-phenyl-ethyl)amino]-cyclopropyl}-phenyl)benzamide] | 3.2 | < 0.1 | > 10
O=C(Nc1ccc([C@@H]2C[C@H]2NC2CCc3ccccc32)cc1)c1ccccc1 (relative stereo) [Example 20, N-{4-[trans-2-(2,3-dihydro-1H-inden-1-ylamino)cyclo-propyl]phenyl}-benzamide] | > 10 | < 0.1 | > 10
O=C(Nc1ccc([C@@H]2C[C@H]2NC2c3ccccc3-c3ccccc32)cc1)c1ccccc1 (relative stereo) [Example 21, N-{4-[trans-2-(9H-fluoren-9-ylamino)cyclo-propyl]phenyl}-benzamide] | > 10 | < 0.1 | > 10
CCCCCCCCCCCCN[C@@H]1C[C@H]1c1ccc(NC(=O)c2ccccc2)cc1 (relative stereo) [Example 22, N-{4-[trans-2-(dodecylamino)-cyclopropyl]-phenyl}benzamide] | 2.6 | 0.41 | 3.6
O=C(Nc1ccc([C@@H]2C[C@H]2NC2CCCCCC2)cc1)c1ccccc1 (relative stereo) [Example 23, N-{4-[trans-2-(cycloheptyl-amino)cyclo-propyl]phenyl}-benzamide] | > 10 | < 0.1 | > 10
O=C(Nc1ccc([C@@H]2C[C@H]2NC2CCCCCCC2)cc1)c1ccccc1 (relative stereo) [Example 24, N-{4-[trans-2-(cyclooctyl-amino)cyclo-propyl]phenyl}-benzamide] | > 10 | < 0.1 | > 10
O=C(Nc1ccc([C@@H]2C[C@H]2NC2CCN(Cc3ccccc3)CC2)cc1)c1ccccc1 (relative stereo) [Example 25, N-(4-{trans-2-[(1-benzyl-piperidin-4-yl)amino]cyclo-propyl}phenyl)-benzamide] | > 10 | < 0.1 | > 10
O=C(Nc1ccc([C@@H]2C[C@H]2NCCOCc2ccccc2)cc1)c1ccccc1 (relative stereo) [Example 26, N-[4-(trans-2-{[2-(benzyloxy)-ethyl]amino}-cyclopropyl)-phenyl]benzamide] | > 10 | < 0.1 | 9.2
O=C(Nc1ccc([C@@H]2C[C@H]2NCc2ccccc2)cc1)c1cccc(Cc2ccccc2)c1 (relative stereo) [Example 28, 3-benzyl-N-{4-[trans-2-(benzylamino)cyclopropyl]phenyl}benzamide] | > 10 | < 0.1 | 3.5
O=C(Nc1ccc([C@@H]2C[C@H]2NCc2ccccc2)cc1)c1cccc(NCc2ccccc2)c1 (relative stereo) [Example 29, 3-(benzylamino)-N-{4-[trans-2-(benzylamino)cyclopropyl]phenyl}benzamide] | > 10 | 0.11 | 5.2
O=C(Nc1ccc([C@@H]2C[C@H]2N2CCCC2)cc1)c1ccccc1 (relative stereo) [Example 30, N-{4-[trans-2-(pyrrolidin-1-yl)cyclopropyl]phenyl}benzamide hydrochloride] | > 10 | 0.58 | 1.7
O=C(Nc1cccc(C(=O)Nc2ccc([C@@H]3C[C@H]3NCc3ccccc3)cc2)c1)c1ccccc1 (relative stereo) [Example 31, N-{4-[trans-2-(benzylamino)cyclopropyl]phenyl}-3-[(phenylcarbonyl)amino]benzamide] | > 10 | < 0.1 | > 10
O=C(Nc1ccc([C@@H]2C[C@H]2NCc2ccccc2)cc1)c1cccc(N2CCCCC2)c1 (relative stereo) [Example 32, N-{4-[trans-2-(benzylamino)cyclopropyl]phenyl}-3-piperidin-1-ylbenzamide] | > 10 | < 0.1 | > 10
O=C(Nc1ccc([C@@H]2C[C@H]2NCc2ccccc2)cc1)c1cccc(N2CCCCC2=O)c1 (relative stereo) [Example 33, N-{4-[trans-2-(benzylamino)cyclopropyl]phenyl}-3-(2-oxopiperidin-1-yl)benzamide] | > 10 | < 0.1 | > 10
